Among the data in PubChem BioAssay (NCI) are TGI values, retold here.

Among the test systems are A498 renal; DU-145 prostate; HCT-15 colon; MDA-N; NCI/ADR-RES ovarian; SF-268 CNS; SW-620 colon; UO-31 renal; MALME-3M melanoma; NCI-H23 lung.
Common to all, as to assay: NCI-60 cell line screen, 48 h

Molecules are shown by their SMILES.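 Where inhibition never reached the appropriate level, the endpoint shown equals the highest concentration tested. Otherwise, values were interpolated linearly from a five-concentration, 48-hour dose response in 96-well plates. The concentration for full growth arrest is given as TGI.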

For the molecule `CSc1ccc(/C=C2\N=C(c3ccccc3)N(c3nc4cc(Cl)c(F)cc4s3)C2=O)cc1`, the TGI was over 100 µM with A498 renal; over 100 µM with DU-145 prostate; over 100 µM in the assay with HCT-15 colon; over 100 µM in the assay with MDA-N; 99.1 µM in the assay with NCI/ADR-RES ovarian; over 100 µM with SF-268 CNS. Besides, the TGI in the assay with SW-620 colon and in the assay on UO-31 renal was over 100 µM in each case.
`C=C(C)[C@H]1CC23C(=O)[C@@](C)(C[C@H]2C1(C)C)C(=O)C(C(=O)C(C)C)=C3O`: the TGI was over 100 µM in the assay with DU-145 prostate; 33.1 µM with HCT-15 colon; 28.6 µM in the assay on MALME-3M melanoma; 35.7 µM in the assay on MDA-N; 43 µM in the assay on NCI-H23 lung; 27.8 µM with NCI/ADR-RES ovarian. For the same molecule, the TGI in the assay on SF-268 CNS stood at 50.4 µM; in the assay on SW-620 colon, 34.5 µM; in the assay with UO-31 renal, 39.2 µM.
On to `CCOC(=O)c1csc(NC(=O)CCN2CCN(C)CC2)n1`, for which the TGI with A498 renal, with DU-145 prostate, in the assay with HCT-15 colon, in the assay on MDA-N, in the assay on NCI-H23 lung and in the assay on NCI/ADR-RES ovarian was over 100 µM throughout. Moreover, the TGI in the assay with SW-620 colon and in the assay on UO-31 renal was over 100 µM each time.
For `Cc1cccc2c1CC(Cc1ccccc1C(=O)O)C2=O` (stereo not drawn), the TGI in the assay with DU-145 prostate, with HCT-15 colon, with MALME-3M melanoma, in the assay with MDA-N, with NCI-H23 lung and in the assay with NCI/ADR-RES ovarian was over 100 µM throughout. In addition, the TGI in the assay with SF-268 CNS, with SW-620 colon and in the assay with UO-31 renal was over 100 µM throughout.
For the molecule `CN1C2=Nc3n(c4ccccc4[n+]3C)CN2c2ccccc21`, the TGI with DU-145 prostate was over 100 µM; in the assay with HCT-15 colon, over 100 µM; in the assay on MALME-3M melanoma, 18 µM; in the assay on MDA-N, 50.5 µM; in the assay on NCI-H23 lung it was over 100 µM; in the assay on NCI/ADR-RES ovarian it was over 100 µM. The values for the TGI in the assay with SF-268 CNS, in the assay with SW-620 colon and in the assay on UO-31 renal were 44.1 µM, over 100 µM and over 100 µM, respectively.
As for `CSc1ncc2c(n1)-c1ccccc1OC2NC1CC1` (stereo not drawn), the TGI in the assay with A498 renal was 28 µM; in the assay on DU-145 prostate it was over 100 µM; with HCT-15 colon, over 100 µM; with MDA-N it was over 100 µM; in the assay on NCI-H23 lung, over 100 µM; in the assay on NCI/ADR-RES ovarian, over 100 µM. Further, the TGI with SF-268 CNS, in the assay with SW-620 colon and in the assay with UO-31 renal was over 100 µM in each case.
For the molecule `CC(=O)Oc1ccn2nc(C)c(Br)c2c1`, the TGI in the assay on A498 renal, in the assay on DU-145 prostate, in the assay on HCT-15 colon, in the assay on MALME-3M melanoma, in the assay with MDA-N and with NCI-H23 lung was over 100 µM throughout. Further, the TGI with NCI/ADR-RES ovarian, in the assay with SF-268 CNS and with SW-620 colon was over 100 µM each time.
On to `CCOC(=O)[C@@H](Cc1ccc(CCl)cc1)NC(C)=O`, for which the TGI with DU-145 prostate was over 100 µM; with HCT-15 colon, 94.1 µM; with MALME-3M melanoma, 37.7 µM; with MDA-N, 40.2 µM; in the assay on NCI-H23 lung, 68.3 µM; in the assay on NCI/ADR-RES ovarian, 43.9 µM. For the same molecule, the TGI is 67 µM with SF-268 CNS, over 100 µM in the assay on SW-620 colon and 36.4 µM in the assay with UO-31 renal.
As to `C=C1C[C@@H]2O[C@H]3[C@H]4[C@@H](C[C@@H](C)[C@@H](OC(C)=O)[C@H]42)[C@@H](C)CO[C@@]3(C)[C@H](OC(=O)CCCCCCC)CC1=O`, the TGI in the assay with A498 renal was determined as 32.5 µM; in the assay on DU-145 prostate, 31.4 µM; with HCT-15 colon, 28.9 µM; with MDA-N, 31 µM; in the assay on NCI-H23 lung it was 40.1 µM; in the assay on NCI/ADR-RES ovarian, 35.5 µM. In addition, the figures for the TGI with SF-268 CNS, with SW-620 colon and in the assay with UO-31 renal were 36.9 µM, 29.8 µM and 29.5 µM, respectively.
`O=C(NC(C(F)(F)F)(C(F)(F)F)P(=O)(Cc1ccccc1)Cc1ccccc1)C(C(F)(F)F)C(F)(F)F`: the TGI with A498 renal is 32.3 µM; in the assay with DU-145 prostate, over 100 µM; with HCT-15 colon it was over 100 µM; with MALME-3M melanoma, 47.1 µM; with MDA-N it was 43.6 µM; with NCI-H23 lung, 40.8 µM. Further, the results for the TGI in the assay with NCI/ADR-RES ovarian, with SF-268 CNS and in the assay with SW-620 colon were 44 µM, 59.4 µM and 92.7 µM, respectively.
As to `CN(C)/N=N/c1nc2c(c(=O)n(C)c(=O)n2C)n1CC1CO1` (stereo not drawn), the TGI was determined as 37.5 µM with DU-145 prostate; 29.1 µM in the assay on HCT-15 colon; 25.1 µM with MALME-3M melanoma; 46.7 µM in the assay on MDA-N; 25.1 µM with NCI-H23 lung; 41.1 µM in the assay on NCI/ADR-RES ovarian. In addition, the TGI was 33.6 µM in the assay on SF-268 CNS, 36.8 µM in the assay with SW-620 colon and 31.3 µM in the assay on UO-31 renal.
With `CC(=N/NC(=S)N(C)C)/C(=N\NC(=S)N(C)C)c1ccccc1`, the TGI with A498 renal stood at 3.12 µM; in the assay with DU-145 prostate, 10.6 µM; with HCT-15 colon, 4.36 µM; with MALME-3M melanoma it was 3.5 µM; with MDA-N, 8.58 µM; in the assay on NCI/ADR-RES ovarian, 4.99 µM. Moreover, the TGI in the assay on SF-268 CNS came out at 4.84 µM; in the assay with SW-620 colon, 3.97 µM; in the assay on UO-31 renal it was 6.21 µM.
As for `NC(=O)c1ccc[n+](C2=C([O-])c3ccccc3C(=O)/C2=N\S(=O)(=O)c2ccccc2)c1`, the TGI in the assay with DU-145 prostate is 34 µM; with HCT-15 colon it was 95.9 µM; with MALME-3M melanoma, 20.1 µM; with MDA-N, 31 µM; in the assay with NCI-H23 lung, 30.6 µM; in the assay on NCI/ADR-RES ovarian, 36.3 µM. The TGI with SF-268 CNS came out at 31.3 µM; with SW-620 colon it was 30.7 µM; in the assay with UO-31 renal, 27.9 µM.
For the molecule `Cn1c(=O)cc(NNc2ccc(Cl)c(Cl)c2)[nH]c1=O`, the TGI is over 100 µM in the assay on A498 renal; over 100 µM with DU-145 prostate; 18.5 µM in the assay with HCT-15 colon; 23.3 µM in the assay on MDA-N; 90.7 µM in the assay on NCI-H23 lung; 64.1 µM in the assay on NCI/ADR-RES ovarian. The TGI stood at 75.9 µM with SF-268 CNS, 21.1 µM with SW-620 colon and 24.4 µM in the assay with UO-31 renal.
Consider `Oc1ccccc1/C=N/N1C(=S)N(C23CC4CC(CC(C4)C2)C3)C(=Nc2ccccc2)C1=Nc1ccccc1`, for which the TGI in the assay on DU-145 prostate, in the assay with HCT-15 colon, with MALME-3M melanoma, in the assay on MDA-N, in the assay on NCI-H23 lung and in the assay on NCI/ADR-RES ovarian was over 100 µM each time. Besides, the TGI in the assay on SF-268 CNS, in the assay with SW-620 colon and in the assay on UO-31 renal was over 100 µM in each case.
